In patent US10696677B2 (Research Triangle Institute, priority 2016, dated 2020):
Entries after “also recorded” stand apart in the source; their conditions may differ. Read-outs that look alike come from different tables or passages of the source.

Tests used:
[1] = target: T1, hCB1 (Homo sapiens, UniProt P21554); assay: radioligand displacement binding at CB1 (membranes of CHO-K1 cells over-expressing receptor); conditions: for CB2 Ki/CB1 Ki selectivity ratio: CB1 versus CB2
Description: (§1) All compounds were characterized by H^1 NMR and evaluated using a calcium mobilization assay. […] Further characterization of select compounds was performed using radioligand displacement of [3H]1 and equilibrium dissociation constant (Ki) values were determined.

[2] = target: T1, hCB1; assay: functional fluorescent CB1 activated Gαq16-coupled intracellular calcium mobilization assay in CHO-K1 cells; assay type: cell-based; set-up: expressed in transfected cells; host or cells: CHO-K1 (membranes); conditions: average of 3-6 measurements, read-out: Apparent antagonist dissociation constant (Ke) at hCB1
[3] = tested on: MDCK; assay: MDCK BBB Assay; assay type: in vitro ADME; conditions: for % Permeable: MDCK BBB assay; for MDCK BBB Assay (Basolateral/Apical Peak Area Ratio) Mean: MDCK cells
[4] = target: hCB2 (Homo sapiens, UniProt P34972); assay: radioligand displacement binding at CB2 ([3H]CP55940, membranes of CHO-K1 cells over-expressing receptor)
Description: as §1

[5] = tested on: alcoholic steatosis, AS; conditions: past studies; cited from earlier work
[6] = in vivo brain penetration, brain and plasma levels by LC/MS/MS; conditions: mouse, po, mice, cassette dosed orally at 2.5 mg/kg, read-out: Brain:Plasma Ratio
Description: Select compounds were chosen for in vivo studies to determine penetration into the CNS. Compounds were cassette dosed orally at 2.5 mg/kg in mice. Brain and plasma samples were collected at 1, 2, 4, and 24 hours post dose and samples were analyzed by LC/MS/MS (Table 5, below). Unperfused brains were used which contain a blood volume of approximately 4%.

[7] = tested on: mouse model of AS; assay: alcohol induced liver steatosis mouse model, Oil Red O staining of liver sections; assay type: in vivo, C57BL/6J mice
Excerpt: FIG. 1A-1B. […] (FIG. 1A) Representative liver sections from mice receiving control diet without ethanol+vehicle (left panel), ethanol containing diet+vehicle (center panel) or ethanol containing diet+98 (right panel).
Pathogen-free female C57BL/6J mice, aged 9 weeks (Jackson Laboratories, Bar Harbor, Me., USA) weighing 19-21 g were used in this study. C57BL/6 mice were offered solid PicoLab Certified Rodent LabDiet® 5053 (pellet) ad libitum during the acclimation period following which, all animals were switched to a Lieber-DeCarli 82′ Control (Catalog No: F1259SP, BioServ®) diet which was nutritionally complete. […] Digitized images of mouse liver sections (10 μm in thickness) were assessed semi-quantitatively for degree of steatosis using Image J software (NIH, Bethesda, Md.). Briefly, a 5 in^2 digital grid (Image J Command Menu: Plugin-Analyze-Grid) was placed on each image wherein lipid droplets in 6 grids per image were counted and the average number of oil droplets was recorded for each animal (n=6, per group). […] Statistical significance was determined through ANOVA between treatment and control groups using Graph Pad Prism 7.0 (GraphPad Software Inc., La Jolla, Calif., USA) at a confidence level of *p<0.001.
In contrast, the ethanol containing diet caused significant accumulation of lipid droplets (center panel in FIG. 1A). […] The data are quantified in FIG. 1B.

[8] = read-out: Binding affinity (Ki) at hCB1, radioligand displacement, CHO-K1 membranes, average of 3-6 measurements
[9] = read-out: Binding affinity (Ki) at hCB2, displacement of [3H]CP55940, CHO-K1 membranes, average of 3-6 measurements

Chain of hCB2 (P34972 whole entry): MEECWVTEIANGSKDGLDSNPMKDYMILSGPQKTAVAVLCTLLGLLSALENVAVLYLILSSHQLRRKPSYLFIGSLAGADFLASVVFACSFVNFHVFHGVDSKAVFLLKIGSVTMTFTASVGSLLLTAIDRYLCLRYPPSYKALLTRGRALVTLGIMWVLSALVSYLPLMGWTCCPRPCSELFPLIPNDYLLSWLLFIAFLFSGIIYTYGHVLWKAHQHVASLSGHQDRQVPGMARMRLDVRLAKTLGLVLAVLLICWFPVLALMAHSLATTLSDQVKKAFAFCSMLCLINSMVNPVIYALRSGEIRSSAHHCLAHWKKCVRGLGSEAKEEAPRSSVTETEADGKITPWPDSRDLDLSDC
T1 sequence (P21554 whole entry): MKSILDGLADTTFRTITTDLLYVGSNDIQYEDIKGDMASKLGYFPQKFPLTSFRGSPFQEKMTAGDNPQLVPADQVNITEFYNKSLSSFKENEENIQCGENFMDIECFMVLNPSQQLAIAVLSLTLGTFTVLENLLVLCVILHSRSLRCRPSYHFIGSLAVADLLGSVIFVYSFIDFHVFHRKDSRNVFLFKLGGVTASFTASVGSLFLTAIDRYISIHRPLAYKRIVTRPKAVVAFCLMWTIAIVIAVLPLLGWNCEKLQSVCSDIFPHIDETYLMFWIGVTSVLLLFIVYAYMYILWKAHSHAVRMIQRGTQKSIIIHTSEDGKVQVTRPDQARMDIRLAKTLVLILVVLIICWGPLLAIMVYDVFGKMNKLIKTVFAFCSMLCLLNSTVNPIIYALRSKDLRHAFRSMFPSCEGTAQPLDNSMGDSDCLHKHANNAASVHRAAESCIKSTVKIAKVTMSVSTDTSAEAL

| SMILES | Ki [1] | Kb [2] | % Permeable [3] | MDCK BBB Assay (Basolateral/Apical Peak Area Ratio) Mean [3] | Ki [1, 8] | CB2 Ki/CB1 Ki selectivity ratio [1] | Ki [4] | Kp [6] | further results |
| --- | --- | --- | --- | --- | --- | --- | --- | --- | --- |
| Clc1ccc(-n2c(-c3ccccc3Cl)nc3c(N4CCN(c5ccc(OCc6ccccc6)cc5)CC4)ncnc32)cc1 [Compound 65, 6-{4-[4-(Benzyloxy)phenyl]piperazin-1-yl}-8-(2-chlorophenyl)-9-(4-chlorophenyl)-9H-purine] | 4.7 nM | 11.6 nM | 8% | 0.082 |  |  |  |  | Binding affinity (Ki) at hCB2 ([4]; displacement of [3H]CP55940, CHO-K1 membranes, average of 3-6 measurements): inactive |
| CC(C)S(=O)(=O)N1CCN(c2ncnc3c2nc(-c2ccccc2Cl)n3-c2ccc(Cl)cc2)CC1 [Compound 80, 8-(2-Chlorophenyl)-9-(4-chlorophenyl)-6-{4-[(1-methylethyl)sulfonyl]piperazin-1-yl}-9H-purine] |  | 1.5 nM | 0% | 0.000 | 1.4 nM |  |  |  | Ki [4, 9]: 978 nM |
| Cc1c(C(=O)NN2CCCCC2)nn(-c2ccc(Cl)cc2Cl)c1-c1ccc(Cl)cc1 [rimonabant] |  |  |  |  |  |  |  |  | reduction of alcoholic steatosis (AS) [5]: effective in reducing AS |
| CCCCC(=O)NC1CCN(c2ncnc3c2nc(-c2ccncc2Cl)n3-c2ccc(Cl)cc2)CC1 [Compound 91, N-{1-[9-(4-chlorophenyl)-8-(3-chloropyridin-4-yl)-9H-purin-6-yl]piperidin-4-yl}pentanamide] | 9.2 nM | 27.8 nM | 41% | 0.409 |  | 126 | 1150 nM |  |  |
| O=C(Nc1ccc(OC(F)F)nc1)N1CCN(c2ncnc3c2nc(-c2ccccc2Cl)n3-c2ccc(Cl)cc2)CC1 [Compound 44, 4-[8-(2-Chlorophenyl)-9-(4-chlorophenyl)-9H-purin-6-yl]-N-[6-(difluoromethoxy)pyridin-3-yl]piperazine-1-carboxamide] |  |  |  |  | 4 nM |  | 74000 nM | 0.18 | melting point: 118 to 120 °C |
| Clc1ccc(-n2c(-c3ccccc3Cl)nc3c(N4CCN(Cc5ccccc5Cl)CC4)ncnc32)cc1 [Compound 98, 6-[4-(2-Chlorobenzyl)piperazin-1-yl]-8-(2-chlorophenyl)-9-(4-chlorophenyl)-9H-purine] |  |  |  |  |  |  |  | 0.06 | hepatic lipid accumulation / liver steatosis (Oil Red O lipid droplets) ([7]; ethanol diet-fed mice, 1.25 mg/kg twice daily by oral gavage, two weeks, vs ethanol+vehicle, 1.25 mg/kg): significantly reduced hepatic lipid accumulation; also recorded: statistically significant reduction of liver steatosis; disease progression/development in a mouse model of AS ([7]; mouse model of alcoholic steatosis): block disease progression/development |
| N=C(NC1CCN(c2ncnc3c2nc(-c2ccccc2Cl)n3-c2ccc(Cl)cc2)CC1)c1ccc(F)cc1 [Compound 26, N-{1-[8-(2-chlorophenyl)-9-(4-chlorophenyl)-9H-purin-6-yl]piperidin-4-yl}-4-fluorobenzenecarboximidamide] | 520 nM | 44 nM | 0% | 0.0019 |  | >11 | > 6000 nM | 0.16 |  |
| CC(C)CS(=O)(=O)N1CCN(c2ncnc3c2nc(-c2ccccc2Cl)n3-c2ccc(Cl)cc2)CC1 [Compound 82, 8-(2-Chlorophenyl)-9-(4-chlorophenyl)-6-{4-[(2-methylpropyl)sulfonyl]piperazin-1-yl}-9H-purine] |  | 0.2 nM | 0% |  | 2 nM |  | 2840 nM |  |  |
| O=S(=O)(NC1CCN(c2ncnc3c2nc(-c2ccccc2Cl)n3-c2ccc(Cl)cc2)CC1)c1ccc(F)cc1F [Compound 5, N-{1-[8-(2-Chlorophenyl)-9-(4-chlorophenyl)-9H-purin-6-yl]piperidin-4-yl}-2,4-difluorobenzene-1-sulfonamide] |  | 2 nM | 0% | 0.0008 | 2 nM | 26000 | 53000 nM |  | melting point: 232 to 233 °C |
| CCCCC(=O)NC1CCN(c2ncnc3c2nc(-c2ccncc2C)n3-c2ccc(Cl)cc2)CC1 [Compound 90, N-{1-[9-(4-chlorophenyl)-8-(3-methylpyridin-4-yl)-9H-purin-6-yl]piperidin-4-yl}pentanamide] | 12.1 nM | 42.2 nM | 38% | 0.379 |  | 51 | 620 nM |  |  |
| N#Cc1ccc(N2CCN(c3ncnc4c3nc(-c3ccccc3Cl)n4-c3ccc(Cl)cc3)CC2)nc1 [Compound 3, 6-{4-[8-(2-Chlorophenyl)-9-(4-chlorophenyl)-9H-purin-6-yl]piperazin-1-yl}pyridine-3-carbonitrile] | 4.8 nM | 11.3 nM | 1% | 0.005 |  | 101 | 484 nM |  |  |
| Clc1ccc(-n2c(-c3ccccc3Cl)nc3c(N4CCN(Cc5cccc(Cl)c5)CC4)ncnc32)cc1 [Compound 99, 6-[4-(3-Chlorobenzyl)piperazin-1-yl]-8-(2-chlorophenyl)-9-(4-chlorophenyl)-9H-purine] |  |  |  |  |  |  |  | 0.09 |  |
| FC(F)Oc1ccc(-n2c(-c3ccccc3Cl)nc3c(N4CCN(Cc5ccccc5Cl)CC4)ncnc32)cn1 [Compound 46, 8-(2-Chlorophenyl)-6-{4-[(2-chlorophenyl)methyl]piperazin-1-yl}-9-[6-(difluoromethoxy)pyridin-3-yl]-9H-purine] | 7 nM | 27 nM |  |  |  | 34 | 240 nM |  | melting point: 147 to 149 °C |
| O=C(Nc1ccccc1F)NC1CCN(c2ncnc3c2nc(-c2ccccc2Cl)n3-c2ccc(Cl)cc2)CC1 [Compound 19, 3-{1-[8-(2-Chlorophenyl)-9-(4-chlorophenyl)-9H-purin-6-yl]piperidin-4-yl}-1-(2-fluorophenyl)urea] |  |  | 0% |  |  |  |  | 0.03 |  |
| CCCCS(=O)(=O)N1CCN(c2ncnc3c2nc(-c2ccccc2Cl)n3-c2ccc(Cl)cc2)CC1 [Compound 81, 8-(2-Chlorophenyl)-9-(4-chlorophenyl)-6-[4-(butylsulfonyl)piperazin-1-yl]-9H-purine] |  | 0.4 nM | 5% | 0.053 | 0.6 nM | 871 |  |  | Ki [4, 9]: 505 nM |
| CCCCC(=O)NC1(c2ccccc2)CCN(c2ncnc3c2nc(-c2ccncc2Cl)n3-c2ccc(Cl)cc2)CC1 [Compound 93, N-{1-[9-(4-chlorophenyl)-8-(3-chloropyridin-4-yl)-9H-purin-6-yl]-4-phenylpiperidin-4-yl}pentanamide] | 17.9 nM | 18.5 nM | 0% | 0.000 |  | 46 | 830 nM |  |  |
